For series [1] the following is noted: background statement; cited from earlier work.
Series [2] is described as follows: Degradation of Radiesse calcium hydroxyapatite filler injected into human skin samples (histology of punch biopsy). The settings on record: for dissolution of calcium hydroxyapatite in the samples: 24 hours after treatment, histology. As to the method:
Human skin samples (two living skin samples taken from living tissue in each group) were injected with 0.4 mL Radiesse®.
The samples were then randomized to three treatment groups: topical sodium metabisulfite (25% (w/v) SMB, formulated in petrolatum jelly, about 1-2 grams SMB applied topically to each site on the skin) application with occlusion, intralesional injection of about 0.4-0.8 mL sodium thiosulfate solution (STS, concentration 12.5 g/50 mL i.e., 0.25 g/mL), or both. In the control group, samples were not treated after the Radiesse® injection.
Twenty-four hours after treatment, a 4-mm punch biopsy was obtained and processed for histology to evaluate the presence, absence, or degradation of calcium hydroxyapatite (FIGS. 1E-1F). A blinded, board-certified dermatopathologist read the samples and determined the amount of calcium present in each sample.

Series [3] is described as follows: Degradation of Radiesse calcium hydroxyapatite filler injected into porcine samples (histology of punch biopsy). To be noted: for dissolution of calcium hydroxyapatite in the samples: 24 hours after treatment, histology. The procedure:
In a prospective, single-center clinical trial, 12 porcine samples (pieces of fresh pork shoulder) were injected with Radiesse®, with volumes ranging from 0.4 to 0.8 mL.
The samples were then randomized to three treatment groups: topical sodium metabisulfite (25% (w/v) SMB, formulated in petrolatum jelly: about 1-2 grams SMB applied topically to each site on the skin, 25% (w/v) sodium metabisulfite in 120 ml gel) application with occlusion, intralesional injection of about 0.2 mL of sodium thiosulfate solution (STS, concentration 12.5 g/50 mL, i.e., 0.25 g/mL or 25% (w/v)), or both. The volume ratio of Radiesse:STS solution ranged from 2:1 to 4:1. In the control group, samples were not treated after the Radiesse® injection.
Twenty-four hours after treatment, a 4-mm punch biopsy was obtained and processed for histology to evaluate the presence, absence, or degradation of calcium hydroxyapatite (FIGS. 1A-1D). A blinded, board-certified dermatopathologist read the samples and determined the amount of calcium present in each sample.

How the values of series [4] were obtained: A filler composition comprising CaHA and HA (hyaluronic acid) was used in a subject. 0.4 ml of CaHA was mixed with 0.4 ml of a highly cohesive HA filler and injected into the volar surface of a human forearm. 0.4 ml of intralesional (IL) STS was injected intralesionally into the treated area. 4 hours after treatment, a 5-mm punch biopsy was obtained. H &E was used to evaluate the presence, absence, or degradation of calcium hydroxyapatite and hyaluronic acid. A blinded, board-certified dermatopathologist read the samples and determined the amount of calcium present in each sample.

For series [5] the following is noted: 1-2 h post-STS injection. As to the method: In the prospective histology study, 3 patients received Radiesse® injections (12-20 injections/patient) followed by intralesional STS injection (STS, concentration 12.5 g/50 mL, i.e., 0.25 g/mL) in the abdomen/arm prior to abdominoplasty/brachioplasty. Patients received various Radiesse:STS solution volume ratios ranging from 1:1 to 1:2.5, including patient 1: 0.5 mL CaHA and 0.5 mL STS per site (volume ratio of CaHA:STS is 1:1); patient 2: 0.2 mL CaHA and 0.5 mL STS per site (volume ratio of CaHA:STS is 1:2.5); patient 3: 0.15 mL CaHA and 0.3 mL STS per site (volume ratio of CaHA:STS is 1:2). Tissue was harvested about 1-2 h after STS injection, and a 4-mm punch biopsy was assessed for the presence of CaHA (using hematoxylin-eosin sections).
(§1) At visit 1, deep CaHA nodules were injected using a 32-gauge half inch needle with STS (STS, concentration 12.5 g/50 mL, i.e., 0.25 g/mL; 2 injections; 0.3 mL total). At visit 2 (about 3-4 weeks after visit 1), the patient received subsequent injections using a 32-gauge half inch needle on a luer lock syringe of STS (0.3 mL total) to superficial CaHA nodules.

How the values of series [6] were obtained:
as §1
The source holds these as a separate data set.

Setting [7] is: over the next 4 days or so after visit 1.

The values below come from patent US20190269721A1, “METHODS AND COMPOSITIONS FOR DEGRADING CALCIUM PHOSPHATE AND FOR TREATING CALCIFICATION DISORDERS” (MERZ NORTH AMERICA, INC., priority 2016, published 2019).

Read-outs that look alike come from different tables or passages of the source.

On to `O=C(O)CN(CCN(CC(=O)O)CC(=O)O)CC(=O)O` [EDTA, ethylenediaminetetraacetic acid], for which the “ability to dissolve / reduce calcium hydroxyapatite” value in series [1] is listed as “unsuccessful”.

Consider `O=S([O-])S(=O)(=O)[O-].[Na+].[Na+]` [SMB, sodium metabisulfite], for which the “effects on collagen or surrounding structures” value in series [2] is on record as “no apparent deleterious effects”. For the same compound, the “dissolution of calcium hydroxyapatite in the samples” value in series [2] (human skin samples) is “reduced, but did not entirely clear”; in series [3] (porcine samples) it was “reduced, but did not entirely clear”. Besides, the “% of calcium hydroxyapatite degraded 24 hrs after treatment” value in series [3] was around 50%.

On to `O=S([O-])([O-])=S.[Na+].[Na+]` [STS, sodium thiosulfate], for which the “reduction of the amount of calcium phosphate tissue filler” value in series [4] (about 24 hours after administration) is listed as “about 100%”. For the same compound, the “effects on collagen or surrounding structures” value is listed as “no apparent deleterious effects” in series [4] (human tissue, intralesional STS) and “no apparent deleterious effects” in series [2] (human tissue, intralesional STS and/or topical SMB). Besides, the “dissolution of CaHA in a mixture of CaHA and HA” value in series [4] (reduced time period of 4 hours) is listed as “completely dissolve”. Further, the “dissolution of calcium hydroxyapatite in the sample” value in series [4] (twenty-four hours after intralesional STS injection, 0.4 ml STS, 0.4 ml CaHA + 0.4 ml HA) is “completely dissolved”. In addition, the “CaHA dissolution in histologic analyses” value in series [5] (all human tissue samples, CaHA:STS volume ratio 1:1 to 1:2.5) was “markedly dissolved”. For the same compound, the CaHA decrease result in series [5] (human tissue samples) was “no less than 70%”. Moreover, the “% of calcium hydroxyapatite degraded 24 hrs after treatment” value is 100% in series [2] (human skin samples, 0.4 mL Radiesse, STS 0.25 g/mL about 0.4-0.8 mL intralesional, SMB 25% (w/v) topical with occlusion, 4-mm punch biopsy) and 100% in series [3] (porcine samples, 0.4-0.8 mL Radiesse, STS 25% (w/v) about 0.2 mL intralesional, SMB 25% (w/v) topical with occlusion, 4-mm punch biopsy). Also, the “dissolution of calcium hydroxyapatite in the samples” value in series [2] (human skin samples) and in series [3] (porcine samples) was “completely dissolved” in each case. The “time until burning sensation resolved” value in series [6] (after immediate ice application) is at most 1 min. Also, the “burning sensation upon injection, 10-point pain scale” value in series [6] (both visits) is 5-6. For the same compound, the erythema result in series [6] (setting [7]) is “concomitant reduction in erythema”. Moreover, the “nodule sizes (patient reported)” value in series [6] (setting [7]) is given as “progressive reduction in nodule sizes”. Besides, in series [6] (visit 1, first STS injection, 0.3 mL total, 0.25 g/mL), the “effect on deep nodules” value is given as “immediate softening”. Also, the “time until superficial nodules softened and became semi-fluctuant” value in series [6] (visit 2, STS 0.3 mL total) lay within 1 to 2 min.

Take hyaluronidase: the “ability to dissolve / reduce calcium hydroxyapatite” value in series [1] was “cannot effectively dissolve”.
